From patent US8664246B2, “Substituted pyridines, and use thereof as GSK3 inhibitors” (Bayer Intellectual Property GmbH, priority 2008, dated 2014)

target: T1, GSK3β (Homo sapiens, UniProt P49841); assay: In vitro biochemical GSK3β inhibition assay (pyruvate kinase/lactate dehydrogenase-coupled, NADH fluorescence); conditions: 5 nM GSK3β, 40 μM GSK3β substrate GSM, 50 μM ATP, 30° C. for 2 hours
T1 construct: purchased Upstate 14-306
Protocol: The inhibitory activity of active substances is determined in a biochemical assay. The ingredients required for this purpose are mixed in a black 384-well microtitre plate with transparent base (from Greiner, catalogue number 781092). The ingredients required for each well of the 384-well microtitre plate are 5 nM GSK3β (from Upstate, catalogue number 14-306), 40 μM GSK3β substrate GSM (sequence H-RRRPASVPPSPSLSRHS-(pS)-HQRR, from Upstate, catalogue number 2-533), 30 μM nicotinamide adenine dinucleotide NADH (Roche Diagnostics, catalogue number 10107735), 50 μM adenosine triphosphate ATP (from Sigma, catalogue number A7966), 2 mM phosphoenolpyruvate (from Roche, catalogue number 128112), and approx. 1 U/ml pyruvate kinase and approx. 1 U/ml lactate dehydrogenase, which are present together in a stock formulation (from Roche, catalogue number 10737291001, suspension with approx. 450 U/ml pyruvate kinase activity, approx. 450 U/ml lactate dehydrogenase activity in […] ammonium sulphate solution pH 6). 1 unit of pyruvate kinase converts 1 μmol of phosphoenolpyruvate to pyruvate per minute at pH 7.6 and 37° C., and 1 unit of lactate dehydrogenase reduces 1 μmol of pyruvate to lactate per minute at pH 7.5 and 37° C. The reaction buffer required, in which the biochemical reaction proceeds, consists of 50 mM Trizma hydrochloride Tris-HCl pH: 7.5 (from Sigma, catalogue number T3253), 5 mM magnesium chloride MgCl2 (from Sigma, catalogue number M8266), 0.2 mM DL-dithiothreitol DTT (from Sigma, catalogue number D9779), 2 mM ethylenediamine ether tetraacid EDTA (from Sigma, catalogue number E6758), 0.01% Triton X-100 (from Sigma, catalogue number T8787) and 0.05% bovine serum albumin BSA (from Sigma, catalogue number B4287).
Active substances are dissolved in dimethyl sulphoxide DMSO (from Sigma, catalogue number D8418) in a concentration of 10 mM. Active substances are added in serial concentrations of 10 μM, 1 μM, 0.1 μM, 0.01 μM, 0.001 μM, 0.0001 μM, 0.00001 μM, 0.000001 μM to the mixtures of the biochemical reaction. As control, dimethyl sulphoxide is added instead of substance in a final concentration of 0.1%.
The reaction is incubated at 30° C. for 2 hours and then the resulting fluorescence is measured in a Tecan Safire-XFLUOR4 instrument, version V4.50 (serial number 12901300283) with the specifications: measurement mode—fluorescence measured from below, excitation wavelength 340 nm, emission wavelength 465 nm, excitation slit width 5 nm, emission slit width 5 nm, gain mode 120, delay 0 μs, number of light flashes per measurement 3, and an integration time of 40 μs.
The activity of the active substances is calculated in relation to these 0% and 100%.

T1 sequence (P49841 whole entry): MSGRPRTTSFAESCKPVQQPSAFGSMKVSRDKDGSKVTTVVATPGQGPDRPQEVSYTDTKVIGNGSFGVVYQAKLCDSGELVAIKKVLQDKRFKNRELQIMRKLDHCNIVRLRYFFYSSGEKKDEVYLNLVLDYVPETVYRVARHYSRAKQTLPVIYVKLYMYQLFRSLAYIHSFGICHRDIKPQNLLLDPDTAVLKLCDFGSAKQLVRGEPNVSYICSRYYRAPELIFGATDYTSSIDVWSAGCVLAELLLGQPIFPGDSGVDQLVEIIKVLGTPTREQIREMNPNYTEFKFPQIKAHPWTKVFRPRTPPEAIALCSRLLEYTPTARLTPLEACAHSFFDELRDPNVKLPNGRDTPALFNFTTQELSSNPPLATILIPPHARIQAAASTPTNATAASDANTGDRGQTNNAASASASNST

Row | IC50 [nM] | Structure (SMILES)
1 | 12 | N#Cc1ccc(NC2CCCN(c3nc(-c4ccc(Cl)cc4Cl)ccc3C#N)C2)nc1 (stereo not shown) [Example 7, 2-{3-[(5-Cyanopyridin-2-yl)amino]piperidin-1-yl}-6-(2,4-dichlorophenyl)pyridine-3-carbonitrile]
2 | 5.04 | N#Cc1ccc(-c2ccc(Cl)cc2Cl)nc1N1CCCC(Nc2ccc(C(=O)C(F)(F)F)c(N)n2)C1 (single isomer, unassigned) [Example Ent-B-2, 2-(3-{[6-amino-5-(trifluoroacetyl)pyridin-2-yl]amino}piperidin-1-yl)-6-(2,4-dichlorophenyl)pyridine-3-carbonitrile]
3 | 6.3 | COc1ccccc1-c1ccc(C(=O)N2CCN(C(C)C)CC2)c(N2CCCC(Nc3ccc(C(=O)C(F)(F)F)c(N)n3)C2)n1 (single isomer, unassigned) [Example Ent-B-12, 1-[2-amino-6-({1-[6-(2-methoxyphenyl)-3-{[4-(propan-2-yl)-piperazin-1-yl]carbonyl}pyridin-2-yl]piperidin-3-yl}amino)pyridin-3-yl]-2,2,2-trifluoroethanone]
4 | 26 | N#Cc1ccc(NC2CCCN(c3nc(-c4ccc(Cl)cc4Cl)ccc3C#N)C2)nc1N (stereo not shown) [Example 6, 2-Amino-6-({1-[3-cyano-6-(2,4-dichlorophenyl)pyridin-2-yl]piperidin-3-yl}amino)-pyridine-3-carbonitrile]
